Counter-ions that a name gives are not always drawn.
Experiments:
[1] = tested on: HCC70; test: Inhibition of cell proliferation (CyQuant), HCC70; type: cell-based; conditions: Homo sapiens; HCC70 breast cancer cell line, 120 hour, CyQuant assay kit
Method: (§1) Exemplary compounds of the invention were tested at different concentrations (from 10 μM to 610 pM; 4-fold serial dilutions) for their ability to inhibit the proliferation of various cancer cell lines. Known kinase inhibitor staurosporine were used as positive controls. Cells were grown in the indicated media listed below. All cell lines were supplemented with FBS (Life Technologies) and 100 U-mL^−1 penicillin, 100 μg·mL^−1 streptomycin (Invitrogen) and cultured at 37° C. in a humidified chamber in the presence of 5% CO2. Proliferation assays were conducted over a 120 hour time period. CyQuant assay kit (ThermoFisher) was used to assess the anti-proliferative effects of the compounds following manufacturer's directions.
(§2) The following cancer cell lines may be tested with the exemplary media conditions indicated:
(§3) Exemplary results of these assays are set forth in Tables 3, where “A” represents an IC50 value of less than 0.2 μM; “B” represents an IC50 value of between 0.2 μM and 5 μM, inclusive; and “C” represents an IC50 value of greater than 5 μM. “NT” represents that the specified compound was not tested in the specified assay.

[2] = target: T1, CDK7/Cyclin H/MAT1 (Homo sapiens, UniProt P50613); test: CDK kinase activity mobility shift assay (MSA); type: biochemical; conditions: The CDK may be CDK7; mobility shift assay, 2 mM ATP, 3 nM CDK/Cyclin, 27° C. for 40 min; read-out: IC50 (CDK inhibition)
T1 construct: made in house; host or cells: insect cell
Method: Human CDKs, cyclins and other partner proteins were expressed in insect cell, purified individually, reconstituted and then purified to homogeneity before being used for kinase activity assay.
Kinase activity of CDKs were determined by mobility shift assay (MSA), in which the formation of a phosphorylated fluorescence-labelled peptide in reaction mixture was monitored through capillary electrophoresis in a microfluidic environment. […] The mixtures were incubated at 27° C. for 40 min before being quenched with 4 μl 80 mM EDTA, then read on a LabChip EZ Reader II (Caliper Life Science). IC50 of compound for CDKs was calculated by Prism (GraphPad) using a four-parameter nonlinear curve fit.

[3] = tested on: OVCAR3; test: Inhibition of cell proliferation (CyQuant), OVCAR3; type: cell-based; conditions: Homo sapiens, OVCAR-3; OVCAR3 ovarian cancer cell line, 120 hour, CyQuant assay kit
Method: as §1, §2
• OVCAR3: RPMI 1640+0.01 mg/mi bovine insulin+20% FBS+1% Glutamax
as §3

T1 sequence (P50613 whole entry): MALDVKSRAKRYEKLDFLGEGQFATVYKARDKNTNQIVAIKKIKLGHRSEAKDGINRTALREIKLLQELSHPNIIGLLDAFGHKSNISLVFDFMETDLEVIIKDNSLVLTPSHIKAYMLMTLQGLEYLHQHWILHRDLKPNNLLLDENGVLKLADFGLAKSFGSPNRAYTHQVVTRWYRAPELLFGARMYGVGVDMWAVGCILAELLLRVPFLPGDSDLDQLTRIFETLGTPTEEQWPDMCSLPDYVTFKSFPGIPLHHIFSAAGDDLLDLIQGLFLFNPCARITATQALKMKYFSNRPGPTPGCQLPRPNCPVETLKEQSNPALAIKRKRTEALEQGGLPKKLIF
T1 sequence (P51946 whole entry partner): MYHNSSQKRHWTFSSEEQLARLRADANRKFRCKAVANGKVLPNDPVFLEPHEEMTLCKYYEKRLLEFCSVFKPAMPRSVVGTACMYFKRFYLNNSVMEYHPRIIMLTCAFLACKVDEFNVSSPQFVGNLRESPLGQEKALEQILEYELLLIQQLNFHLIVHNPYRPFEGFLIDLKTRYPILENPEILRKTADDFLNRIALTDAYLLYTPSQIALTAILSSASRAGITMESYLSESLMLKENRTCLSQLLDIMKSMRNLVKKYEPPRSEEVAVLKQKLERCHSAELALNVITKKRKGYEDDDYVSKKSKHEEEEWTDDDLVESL
T1 sequence (P51948 whole entry partner): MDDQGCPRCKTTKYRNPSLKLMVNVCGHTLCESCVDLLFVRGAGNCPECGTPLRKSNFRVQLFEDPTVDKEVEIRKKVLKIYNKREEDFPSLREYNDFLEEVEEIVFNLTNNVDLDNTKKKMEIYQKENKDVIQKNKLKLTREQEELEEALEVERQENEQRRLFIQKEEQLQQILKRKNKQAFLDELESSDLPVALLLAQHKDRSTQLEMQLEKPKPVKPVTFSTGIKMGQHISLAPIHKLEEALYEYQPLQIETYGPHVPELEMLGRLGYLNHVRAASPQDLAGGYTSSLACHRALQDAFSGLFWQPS

IC50 [2] [nM]	IC50 [3] [nM]	SMILES	IC50 [1] [nM]
< 100	< 200	CC(C)n1cnc2c(NCc3ccccc3-c3cnn(C)c3)nc(N3CCC(N)CC3)nc21 [Compound I-8, 2-(4-aminopiperidin-1-yl)-9-isopropyl-N-(2-(1-methyl-1H-pyrazol-4-yl)benzyl)-9H-purin-6-amine]	200 to 5000
< 100	200 to 5000	CC(C)n1cnc2c(NCc3ccccc3-n3ccc(C(=O)N4CCN(CCO)CC4)n3)nc(N3CCC(N)CC3)nc21 [Compound I-2, (1-(2-(((2-(4-aminopiperidin-1-yl)-9-isopropyl-9H-purin-6-yl)amino)methyl)phenyl)-1H-pyrazol-3-yl)(4-(2-hydroxyethyl)piperazin-1-yl)methanone]	200 to 5000
< 100	200 to 5000	CC(C)n1cnc2c(NCc3ccccc3-n3cccn3)nc(N3CCC[C@H](N)C3)nc21 [Compound I-10, (S)—N-(2-(1H-pyrazol-1-yl)benzyl)-2-(3-aminopiperidin-1-yl)-9-isopropyl-9H-purin-6-amine]	200 to 5000
< 100	< 200	CNC1CCN(c2nc(NCc3ccccc3-n3cccn3)c3ncn(C(C)C)c3n2)CC1 [Compound I-19, N-(2-(1H-pyrazol-1-yl)benzyl)-9-isopropyl-2-(4-(methylamino)piperidin-1-yl)-9H-purin-6-amine]	< 200
< 100	< 200	CC(C)n1cnc2c(NCc3ccccc3-c3ccnn3C)nc(N3CCC(N)CC3)nc21 [Compound I-12, 2-(4-aminopiperidin-1-yl)-9-isopropyl-N-(2-(1-methyl-1H-pyrazol-5-yl)benzyl)-9H-purin-6-amine]	< 200
< 100	200 to 5000	CC(C)n1cnc2c(NCc3ccccc3-n3ccc(C(=O)N4CCN(C)CC4)n3)nc(N3CCC(N)CC3)nc21 [Compound I-3, (1-(2-(((2-(4-aminopiperidin-1-yl)-9-isopropyl-9H-purin-6-yl)amino)methyl)phenyl)-1H-pyrazol-3-yl)(4-methylpiperazin-1-yl)methanone]	200 to 5000
< 100	200 to 5000	CCn1cnc2c(NCc3ccccc3-n3cccn3)nc(N3CCC(N)CC3)nc21 [Compound I-7, N-(2-(1H-pyrazol-1-yl)benzyl)-2-(4-aminopiperidin-1-yl)-9-ethyl-9H-purin-6-amine hydrochloride]	200 to 5000
< 100	< 200	CC(C)n1nccc1-c1ncccc1CNc1nc(N2CCC(N)CC2)nc2c1ncn2C(C)C [Compound I-6, 2-(4-aminopiperidin-1-yl)-9-isopropyl-N-((2-(1-isopropyl-1H-pyrazol-5-yl)pyridin-3-yl)methyl)-9H-purin-6-amine]	< 200
< 100	< 200	CC(C)n1cnc2c(NCc3ccccc3-n3ccc(C(C)(C)O)n3)nc(N3CCC(N)CC3)nc21 [Compound I-16, 2-(1-(2-(((2-(4-aminopiperidin-1-yl)-9-isopropyl-9H-purin-6-yl)amino)methyl)phenyl)-1H-pyrazol-3-yl)propan-2-ol]	< 200
100 to 500		CC(C)n1cnc2c(NCc3ccccc3-n3cccn3)nc(N3CCC(N)C3)nc21 (centres unmarked) [Compound I-36, N-(2-(1H-pyrazol-1-yl)benzyl)-2-(3-aminopyrrolidin-1-yl)-9-isopropyl-9H-purin-6-amine]	
500 to 1000		CC(C)n1cnc2c(NCc3ccccc3-n3cccn3)nc(N[C@H]3CC[C@H](O)CC3)nc21 [Compound I-39, (1R,4R)-4-((6-((2-(1H-pyrazol-1-yl)benzyl)amino)-9-isopropyl-9H-purin-2-yl)amino)cyclohexan-1-ol]	
< 100		c1ccc(-n2cccn2)c(CNc2nc(N3CCNCC3)nc3c2ncn3C2CCCC2)c1 [Compound I-27, N-(2-(1H-pyrazol-1-yl)benzyl)-9-cyclopentyl-2-(piperazin-1-yl)-9H-purin-6-amine]	
100 to 500		CC(C)n1cnc2c(NCc3ccccc3-n3cccn3)nc(NC3CCNCC3)nc21 [Compound I-30, N6-(2-(1H-pyrazol-1-yl)benzyl)-9-isopropyl-N2-(piperidin-4-yl)-9H-purine-2,6-diamine hydrochloride]	
100 to 500		CC(C)n1cnc2c(NCc3ccccc3-n3cccn3)nc(N3CCC(O)(Cn4cc(N)cn4)CC3)nc21 [Compound I-31, 1-(6-((2-(1H-pyrazol-1-yl)benzyl)amino)-9-isopropyl-9H-purin-2-yl)-4-((4-amino-1H-pyrazol-1-yl)methyl)piperidin-4-ol]	
< 100		CC(C)n1cnc2c(NCc3ccccc3-n3cccn3)nc(N3CC[C@H](N)C3)nc21 [Compound I-9, (S)—N-(2-(1H-pyrazol-1-yl)benzyl)-2-(3-aminopyrrolidin-1-yl)-9-isopropyl-9H-purin-6-amine]	
100 to 500		CC(C)n1cnc2c(NCc3ccccc3-n3cccn3)nc(N3CCC(CN)C3)nc21 (centres unmarked) [Compound I-34, N-(2-(1H-pyrazol-1-yl)benzyl)-2-(3-(aminomethyl)pyrrolidin-1-yl)-9-isopropyl-9H-purin-6-amine]	
500 to 1000		CC(C)n1cnc2c(NCc3ccccc3-n3cccn3)nc(N3CCC(CO)CC3)nc21 [Compound I-40, (1-(6-((2-(1H-pyrazol-1-yl)benzyl)amino)-9-isopropyl-9H-purin-2-yl)piperidin-4-yl)methanol]	
100 to 500		CC(C)n1cnc2c(NCc3ccccc3-n3cccn3)nc(N3CCC(CN)CC3)nc21 [Compound I-41, N-(2-(1H-pyrazol-1-yl)benzyl)-2-(4-(aminomethyl)piperidin-1-yl)-9-isopropyl-9H-purin-6-amine]	
100 to 500		CC(C)n1cnc2c(NCc3ccccc3-n3cccn3)nc(N3CCC(C4CCNCC4)CC3)nc21 [Compound I-5, N-(2-(1H-pyrazol-1-yl)benzyl)-2-([4,4′-bipiperidin]-1-yl)-9-isopropyl-9H-purin-6-amine hydrochloride]	
< 100		CC(C)n1cnc2c(NCc3ccccc3-n3ccc(CO)n3)nc(N3CCC(N)CC3)nc21 [Compound I-1, (1-(2-(((2-(4-aminopiperidin-1-yl)-9-isopropyl-9H-purin-6-yl)amino)methyl)phenyl)-1H-pyrazol-3-yl)methanol]	
< 100		NC1CCN(c2nc(NCc3ccccc3-n3cccn3)c3ncn(C4CCCC4)c3n2)CC1 [Compound I-25, N-(2-(1H-pyrazol-1-yl)benzyl)-2-(4-aminopiperidin-1-yl)-9-cyclopentyl-9H-purin-6-amine]	
< 100	< 200	CC(C)N1CCN(c2ccn(-c3ccccc3CNc3nc(N4CCC(N)CC4)nc4c3ncn4C(C)C)n2)CC1 [Compound I-4, 2-(4-aminopiperidin-1-yl)-9-isopropyl-N-(2-(3-(4-isopropylpiperazin-1-yl)-1H-pyrazol-1-yl)benzyl)-9H-purin-6-amine hydrochloride]	< 200
> 1000		CC(C)n1cnc2c(NCc3ccccc3-n3cccn3)nc(NC(=O)C3CCNCC3)nc21 [Compound I-21, N-(6-((2-(1H-pyrazol-1-yl)benzyl)amino)-9-isopropyl-9H-purin-2-yl)piperidine-4-carboxamide]	
> 1000		CC(C)n1cnc2c(NCc3ccccc3-n3cccn3)nc(N3CCC(C(=O)N(C)C)CC3)nc21 [Compound I-15, 1-(6-((2-(1H-pyrazol-1-yl)benzyl)amino)-9-isopropyl-9H-purin-2-yl)-N,N-dimethylpiperidine-4-carboxamide]	
100 to 500		CC(C)n1cnc2c(NCc3ccccc3-n3cccn3)nc(N3CCC(C(N)=O)CC3)nc21 [Compound I-38, 1-(6-((2-(1H-pyrazol-1-yl)benzyl)amino)-9-isopropyl-9H-purin-2-yl)piperidine-4-carboxamide]	
< 100		CCN(CC)C1CCN(c2nc(NCc3ccccc3-n3cccn3)c3ncn(C(C)C)c3n2)CC1 [Compound I-20, 2-[4-(diethylamino)-1-piperidyl]-9-isopropyl-N-[(2-pyrazol-1-ylphenyl)methyl]purin-6-amine]	

SMILES	IC50 [2] [nM]	IC50 [3] [nM]	IC50 [1] [nM]
CC(C)n1cnc2c(NCc3ccccc3-n3cccn3)nc(NC3CN4CCC3CC4)nc21 (centres unmarked) [Compound I-33, N6-(2-(1H-pyrazol-1-yl)benzyl)-9-isopropyl-N2-(quinuclidin-3-yl)-9H-purine-2,6-diamine]	100 to 500		
